Measured values as given in patent US20220177520A1, “PEPTIDES INHIBITING ANDROGEN RECEPTOR ACTIVITY, AND COSMETICS COMPOSITION USING SAME” (SUPADELIXIR INC., priority 2019, published 2022).

Columns and labels:
[1] = system: androgen receptor; assay: PSA expression in DHT-treated prostate cancer cells (Western blot); type: cell-based; conditions: LNCaP cells, DHT 20 nM plus AR Pep1 1, 10, 100 μM, 24 hours, versus DHT only; FIG. 1
Procedure: 1. Prostate cancer cells (LNCaP) were prepared at a density of 5×10^6 cells per well, treated with DHT at a concentration of 20 nM and with AR Pep1 at a concentration of 1, 10, 100 μM respectively, then cultured in an incubator at 37° C. in the presence of 5% CO2 for 24 hours. As a control group, one with no treatment at all and one treated only with DHT were used. The cancer cells were washed with PBS three times, and lysed with 1% NP40 lysis buffer (1% Nonidet P40, 0.1 M NaCl, 0.05 M tris (pH 8.0), 5 mM EDTA) containing […] PMSP (phenylmethylsulfonyl fluoride), 1 μg/ml pepstatin A, 10 μg/ml leupeptin, 1 μg/ml aprotinin and 1 mM Na3VO4.
2. The cell lysate was quantified using Bradford assay to prepare a protein sample for electrophoresis.
Immunoprecipitates were subjected to 12.5% polyacrylamide gel electrophoresis, then the unfolded protein was transferred onto a nitrocellulose membrane, treated with a blocking solution (Tris-buffered saline (TBS) containing 0.05% Tween 20 and 3% bovine serum albumin) for about one hour at room temperature. Then, the membrane was suspended in TBS buffer containing Anti-PSA polyclonal antibody (Santa cruz, CA, USA) for two hours and washed with TBS buffer containing 0.05% Tween 20. […]

[2] = biological target: T1, AR and POL II (Homo sapiens, UniProt P10275); assay: Physical binding of AR and POL II in DHT-treated human keratinocytes (in situ PLA); type: cell-based; conditions: HaCaT cells, DHT 20 nM plus AR Pep1 20 nM, 1, 10, 100 μM, 24 hours, versus DHT only; FIG. 2
T1 construct: Human keratinocytes (HaCaT) were prepared at a density of 4.5×10^4 cells per well, treated with DHT; endogenous in cells; host or cells: HaCaT human keratinocytes
T1 sequence (P10275 1-920): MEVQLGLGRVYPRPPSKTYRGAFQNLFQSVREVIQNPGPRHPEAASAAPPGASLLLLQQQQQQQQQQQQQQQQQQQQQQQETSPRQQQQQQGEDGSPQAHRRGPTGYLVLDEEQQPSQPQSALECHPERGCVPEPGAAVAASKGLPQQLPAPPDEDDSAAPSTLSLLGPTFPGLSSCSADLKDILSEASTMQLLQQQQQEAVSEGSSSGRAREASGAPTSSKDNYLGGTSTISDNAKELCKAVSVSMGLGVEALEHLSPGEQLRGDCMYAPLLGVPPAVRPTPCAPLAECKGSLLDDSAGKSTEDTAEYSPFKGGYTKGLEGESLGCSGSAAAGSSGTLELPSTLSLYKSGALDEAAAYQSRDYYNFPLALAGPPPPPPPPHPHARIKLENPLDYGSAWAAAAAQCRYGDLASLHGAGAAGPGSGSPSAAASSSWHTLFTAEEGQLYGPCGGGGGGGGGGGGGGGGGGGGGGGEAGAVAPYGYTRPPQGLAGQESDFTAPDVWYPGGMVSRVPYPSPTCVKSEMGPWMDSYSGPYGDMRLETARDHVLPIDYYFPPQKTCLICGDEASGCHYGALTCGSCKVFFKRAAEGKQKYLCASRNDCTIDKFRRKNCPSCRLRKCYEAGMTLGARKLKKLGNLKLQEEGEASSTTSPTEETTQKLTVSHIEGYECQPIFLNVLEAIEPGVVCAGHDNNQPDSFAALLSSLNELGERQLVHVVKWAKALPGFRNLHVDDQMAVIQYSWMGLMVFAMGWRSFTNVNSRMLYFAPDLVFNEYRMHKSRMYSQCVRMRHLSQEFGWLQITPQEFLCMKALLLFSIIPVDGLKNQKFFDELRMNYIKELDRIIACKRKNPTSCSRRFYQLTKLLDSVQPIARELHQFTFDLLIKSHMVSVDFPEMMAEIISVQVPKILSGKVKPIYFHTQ
Procedure: 1. Human keratinocytes (HaCaT) were prepared at a density of 4.5×10^4 cells per well, treated with DHT at a concentration of 20 nM and with AR Pep1 at a concentration of 20 nM, 1, 10, 100 μM respectively, then cultured in an incubator at 37° C. in the presence of 5% CO2 for 24 hours. As a control, one with no treatment at all and one treated only with DHT were used. The cells in each well were washed with PBS, fixed in 2% formaldehyde for five minutes, and treated with 0.1% TritonX-100 for five minutes to enhance antibody permeability into cells. Then, Anti-AR polyclonal antibody (Santa cruz, USA) and Anti-POL II monoclonal antibody (Santa cruz, USA) were added, PLA probe was applied using In situ PLA kit (Sigma-Aldrich), and steps of hybridization, ligation, amplification, and mounting were performed.
2. Luminescence signals (PLA signals) detected from each cell were measured with a confocal laser microscope (Olympus fluoview FW1000; Olympus, Japan), physical interaction between the AR and POL II antibodies was quantified.

Asp-Lys-Phe (DKF; Peptide 1) [AR Pep1]
expression of prostate-specific antigen (PSA) [1]: expression of the PSA was reduced
physical interaction between the AR and POL II (PLA signals) [2]: the increase in that interaction was reduced
